Counter-ions that a name gives are not always drawn.
System: SARS-CoV-2
Assay: microbe, parasite or virus in culture
Details: Severe acute respiratory syndrome coronavirus 2, Vero C1008, 48 h

| Compound | IC50 [µM] | IC50 (read-out: pIC50 (converted)) [µM] |
| --- | --- | --- |
| COc1cc(NCCCC(C)N)c2ncccc2c1 (configuration not stated) [QUINOCIDE] | > 20 | > 20 |
| COCCO[C@@H]1c2ccn3c(C)c(C)nc3c2N[C@H](c2ccccc2)[C@H]1O [SORAPRAZAN] | > 20 | > 20 |
| CC1CC(C)C(=O)C(C(O)CC2CC(=O)NC(=O)C2)C1 (configuration not stated) | > 20 | > 20 |
| CNc1c2c(nn1C)CCCC2 [TETRYDAMINE] | > 20 | > 20 |
| C/C(=N/NC(=N)N)c1cc(NC(=O)CCCCCCCCC(=O)Nc2cc(/C(C)=N\NC(=N)N)cc(/C(C)=N/NC(=N)N)c2)cc(/C(C)=N/NC(=N)N)c1 | > 20 | > 20 |
| CC(C)C(Br)C(=O)NC(N)=O (configuration not stated) [BROMISOVALUM] | > 20 | > 20 |
| CCN1C(=CC=CC=Cc2sc3ccccc3[n+]2CC)Sc2ccccc21 [DITHIAZANINE] | > 20 | > 20 |
| C=CCC1(CC(C)C)C(=O)NC(=O)NC1=O [BUTALBITAL] | > 20 | > 20 |
| CN(CCCN1c2ccccc2CCc2ccccc21)CC(=O)c1ccc(Cl)cc1 [LOFEPRAMINE] | > 20 | > 20 |
| CC(CN1CCOCC1)C(C(=O)N1CCCC1)(c1ccccc1)c1ccccc1 (racemic) [RACEMORAMIDE] | > 20 | > 20 |
| OCc1ccccc1O[C@@H]1O[C@H](CO)[C@@H](O)[C@H](O)[C@H]1O [SALICIN] | > 20 | > 20 |
| CC(NCCc1ccc(O)cc1)C(O)c1ccc(O)cc1 (configuration not stated) [RITODRINE HYDROCHLORIDE] | > 20 | > 20 |
| COc1c2ccoc2cc2oc(=O)ccc12 [BERGAPTEN] | > 20 | > 20 |
| CCCCCCc1ccc(O)cc1O [HEXYLRESORCINOL] | > 20 | > 20 |
| CNCC(O)c1ccc(O)cc1 (configuration not stated) [OXEDRINE] | > 20 | > 20 |
| CC(O)c1cc(C(=O)N[C@@H](C)Cn2ccc(-c3ccc(C#N)c(Cl)c3)n2)n[nH]1 (some centres not stated) [DAROLUTAMIDE] | > 20 | > 20 |
| CC1CN(c2cc3c(cc2F)c(=O)c(C(=O)O)cn3-c2ccc(F)cc2F)CCN1 (configuration not stated) [TEMAFLOXACIN] | > 20 | > 20 |
| CC(C)NC(=N)NC(=N)Nc1ccc(Cl)cc1 [PROGUANIL] | > 20 | > 20 |
| CC(=O)O[C@H]1C[C@@H]2CC[C@@H]3[C@H](CC[C@@]4(C)[C@H]3C[C@H]([N+]3(C)CCCCC3)[C@@H]4OC(C)=O)[C@@]2(C)C[C@@H]1[N+]1(C)CCCCC1 [PANCURONIUM] | > 20 | > 20 |
| CCCCC1(COC(=O)CCC(=O)O)C(=O)N(c2ccccc2)N(c2ccccc2)C1=O [SUXIBUZONE] | > 20 | > 20 |
| CC(N)C(O)c1cccc(O)c1 (configuration not stated) | > 20 | > 20 |

| Compound | IC50 [µM] | IC50 (read-out: pIC50 (converted)) [µM] |
| --- | --- | --- |
| CN(C)CCCOC1CC(C)(C)N(C)C(C)(C)C1 [PEMERID] | > 20 | > 20 |
| N=C(N)c1ccc(CNC(=O)[C@@H]2CCN2C(=O)[C@H](NCC(=O)O)C2CCCCC2)cc1 | > 20 | > 20 |
| C[C@]12CCC(=O)C=C1CC[C@@H]1[C@@H]2[C@@H](O)C[C@@]2(C)[C@H]1CC[C@]2(O)C(=O)CO [HYDROCORTISONE] | > 20 | > 20 |
| COCCOC(=O)C1=C(C)NC(C)=C(C(=O)OCC=Cc2ccccc2)C1c1cccc([N+](=O)[O-])c1 (configuration not stated) | > 20 | > 20 |
| COc1ccc2c3c1O[C@H]1[C@@H](O)C=C[C@H]4[C@@H](C2)NCC[C@@]341 [NORCODEINE] | > 20 | > 20 |
| COP(=O)(OC)C(O)C(Cl)(Cl)Cl (configuration not stated) [TRICHLORFON] | > 20 | > 20 |
| O=C(N[C@H]1CN2CCC1CC2)c1ccc(Cl)cc1 [PNU-282987] | > 20 | > 20 |
| CNCCC(Oc1ccc(C(F)(F)F)cc1)c1ccccc1 (configuration not stated) [FLUOXETINE] | > 20 | > 20 |
| C[C@]12CC[C@@H]3c4ccc(OS(=O)(=O)O)cc4CC[C@H]3[C@@H]1CCC2=O [ESTRONE SULFURIC ACID] | > 20 | > 20 |
| Clc1ccc(C2(Cn3cncn3)OCCO2)c(Cl)c1 [AZACONAZOLE] | > 20 | > 20 |
| COC1=C(O)C(=O)c2c(cc3oc(C(C)=O)c(O)c3c2O)C1=O [RHODOCLADONIC ACID] | > 20 | > 20 |
| CNCc1ccc(-c2[nH]c3cc(F)cc4c3c2CCNC4=O)cc1 [RUCAPARIB] | > 20 | > 20 |
| NC(=O)NCCC[C@H](N)C(=O)O [L-CITRULLINE] | > 20 | > 20 |
| O=C(O)C1(C(=O)O)CCC1 | > 20 | > 20 |
| c1ccc(CNc2ncnc3[nH]cnc23)cc1 [6-BENZYLAMINOPURINE] | > 20 | > 20 |
| CC(=O)Oc1cc2c(s1)CCN(C(C(=O)C1CC1)c1ccccc1F)C2 (configuration not stated) | > 20 | > 20 |
| CC[C@H]1OC(=O)[C@H](C)[C@@H](O[C@H]2C[C@@](C)(OC)[C@@H](O)[C@H](C)O2)[C@H](C)[C@@H](O[C@@H]2O[C@H](C)C[C@H](N(C)C)[C@H]2O)[C@](C)(O)C[C@@H](C)C(=O)[C@H](C)[C@@H](O)[C@]1(C)O [ERYTHROMYCIN] | > 20 | > 20 |
| COC1CCC2(C)C(=CCC3C2CCC2(C)C(C(C)=O)CCC32)C1 (configuration not stated) | > 20 | > 20 |
| C#Cc1cccc(Nc2ncnc3cc(OCCOC)c(OCCOC)cc23)c1 [ERLOTINIB] | > 20 | > 20 |
| Cn1c([N+](=O)[O-])cnc1COC(N)=O [RONIDAZOLE] | > 20 | > 20 |
| CC1(C)CC(=O)c2c(C(F)(F)F)nn(-c3ccc(C(N)=O)c(N[C@H]4CC[C@H](OC(=O)CN)CC4)c3)c2C1 [SNX 5422] | > 20 | > 20 |

| Compound | IC50 [µM] | IC50 (read-out: pIC50 (converted)) [µM] |
| --- | --- | --- |
| NC(=O)OC[C@@H](N)Cc1ccccc1 | > 20 | > 20 |
| O=C1N[11C](=O)C(c2ccccc2)(c2ccccc2)N1 | > 20 | > 20 |
| CC(=O)[C@]1(N)Cc2c(O)c3c(c(O)c2[C@@H](O[C@H]2C[C@H](O)[C@H](O)CO2)C1)C(=O)c1ccccc1C3=O [AMRUBICIN] | > 20 | > 20 |
| CC(C)(C(=O)O)c1ccc(C(O)CCCN2CCC(C(O)(c3ccccc3)c3ccccc3)CC2)cc1 (configuration not stated) [FEXOFENADINE] | > 20 | > 20 |
| c1ccc2c(c1)Sc1ccccc1N2CCN1CCCC1 [PYRATHIAZINE] | > 20 | > 20 |
| Cc1oc(=O)oc1CN1CCN(c2cc3c(cc2F)c(=O)c(C(=O)O)c2n3C(C)S2)CC1 (configuration not stated) [PRULIFLOXACIN] | > 20 | > 20 |
| CN(C)CCCOc1nn(Cc2ccccc2)c2ccccc12 [BENZYDAMINE] | > 20 | > 20 |
| C[C@@H](C(=O)O)c1ccc(-c2ccccc2)c(F)c1 [TARENFLURBIL] | > 20 | > 20 |
| CC12CCC(O)CC1CCC1[C@@H]2CC(O)C2(C)C(C3=CC(=O)OC3)CCC12O (some centres not stated) | > 20 | > 20 |
| COc1ccc([C@@H]2CC(=O)c3c(O)cc(O)cc3O2)cc1O [HESPERETIN] | > 20 | > 20 |
| Nc1nc(O)c2c(n1)NCC(CNc1ccc(C(=O)N[C@@H](CCC(=O)O)C(=O)O)cc1)N2 (some centres not stated) | > 20 | > 20 |
| CC(C)(C)NCC(O)c1ccc(O)c(CS(C)(=O)=O)c1 (configuration not stated) [SULFONTEROL] | > 20 | > 20 |
| CC(C)[C@H](N)C(=O)N1CCC[C@H]1B(O)O [TALABOSTAT] | > 20 | > 20 |
| CC(C)(O)CC[C@@H](O)[C@](C)(O)[C@H]1CC[C@@]2(O)C3=CC(=O)[C@@H]4C[C@@H](O)[C@@H](O)C[C@]4(C)[C@H]3CC[C@]12C [20-HYDROXYECDYSONE] | > 20 | > 20 |
| C=C(c1ccc(C(=O)O)cc1)c1cc2c(cc1C)C(C)(C)CCC2(C)C [BEXAROTENE] | > 20 | > 20 |
| C=CC1CN2CCC1CC2C(O)c1ccnc2ccccc12 (configuration not stated) | > 20 | > 20 |
| CC(NCCC(c1ccccc1)c1ccccc1)c1ccccc1 (configuration not stated) [FENDILINE] | > 20 | > 20 |
| CC(C)(C)c1nc(-c2cccc(NS(=O)(=O)c3c(F)cccc3F)c2F)c(-c2ccnc(N)n2)s1 [DABRAFENIB] | > 20 | > 20 |
| CC[N+](C)(CC)CCC[n+]1c(-c2ccccc2)c2cc(N)ccc2c2ccc(N)cc21 | > 20 | > 20 |
